PubChem BioAssay (NCI)
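96-well plates; 48 h exposure; 5 concentrations. Endpoints by linear interpolation between flanking doses. Not reached: highest tested concentration assigned. The concentration for 50% growth inhibition is given as GI50. TGI denotes the concentration required for complete inhibition of growth.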

Key:
Experiment in all cases: growth of human tumour cells (NCI), 48 h
[1] = tested on: NCI-H23 lung
[2] = tested on: NCI-H460 lung
[3] = tested on: NCI-H522 lung
[4] = tested on: NCI/ADR-RES ovarian
[5] = tested on: OVCAR-3 ovarian
[6] = tested on: OVCAR-4 ovarian
[7] = tested on: OVCAR-5 ovarian
[8] = tested on: OVCAR-8 ovarian
[9] = tested on: PC-3 prostate
[10] = tested on: RXF 393 renal
[11] = tested on: SF-268 CNS
[12] = tested on: SF-295 CNS
[13] = tested on: SF-539 CNS
[14] = tested on: SK-MEL-2 melanoma
[15] = tested on: SK-MEL-28 melanoma
[16] = tested on: SK-MEL-5 melanoma
[17] = tested on: SN12C renal
[18] = tested on: SNB-19 CNS
[19] = tested on: SNB-75 CNS
[20] = tested on: SR leukemia
[21] = tested on: SW-620 colon
[22] = tested on: T-47D breast
[23] = tested on: TK-10 renal
[24] = tested on: U251 CNS
[25] = tested on: UACC-257 melanoma
[26] = tested on: UACC-62 melanoma
[27] = tested on: UO-31 renal

Question: Which TGI [1] does the source give for `S=C(Nc1ccc(Cl)cc1)Nc1ccc(Cl)cc1` (tested in a mixture with another compound) here?
Answer: 6.05 µM

Question: What about the GI50 [2] of the same compound?
Answer: 1.61 µM

Question: And the TGI [2]?
Answer: 4.46 µM

Question: And the GI50 [3]?
Answer: 1.39 µM

Question: What about the TGI [3] of the same compound?
Answer: 4.37 µM

Question: And the GI50 [4]?
Answer: 2.54 µM

Question: What about the TGI [4] of the same compound?
Answer: 13.9 µM

Question: What about the GI50 [5] of the same compound?
Answer: 1.69 µM

Question: And the TGI [5]?
Answer: 4.48 µM

Question: And the GI50 [6]?
Answer: 2.92 µM

Question: And the TGI [6]?
Answer: > 100 µM

Question: And the GI50 [7]?
Answer: 2.38 µM

Question: And the TGI [7]?
Answer: 9.71 µM

Question: And the GI50 [8]?
Answer: 3.26 µM

Question: And the TGI [8]?
Answer: > 100 µM

Question: What about the GI50 [9] of the same compound?
Answer: 1.71 µM

Question: What about the TGI [9] of the same compound?
Answer: 6.59 µM

Question: What about the GI50 [10] of the same compound?
Answer: 2.13 µM

Question: What about the TGI [10] of the same compound?
Answer: 5.29 µM

Question: And the GI50 [11]?
Answer: 3.2 µM

Question: What about the TGI [11] of the same compound?
Answer: 15.8 µM

Question: And the GI50 [12]?
Answer: 1.75 µM

Question: And the TGI [12]?
Answer: 4.38 µM

Question: What about the GI50 [13] of the same compound?
Answer: 2 µM

Question: What about the TGI [13] of the same compound?
Answer: 4.84 µM

Question: And the GI50 [14]?
Answer: 2.34 µM

Question: And the TGI [14]?
Answer: 5.04 µM

Question: What about the GI50 [15] of the same compound?
Answer: 3.46 µM

Question: And the TGI [15]?
Answer: 25.5 µM

Question: And the GI50 [16]?
Answer: 1.55 µM

Question: And the TGI [16]?
Answer: 2.94 µM

Question: And the GI50 [17]?
Answer: 2.49 µM

Question: What about the TGI [17] of the same compound?
Answer: 7.32 µM

Question: What about the GI50 [18] of the same compound?
Answer: 3.25 µM

Question: What about the TGI [18] of the same compound?
Answer: > 100 µM

Question: And the GI50 [19]?
Answer: 1.65 µM

Question: And the TGI [19]?
Answer: 4.87 µM

Question: And the GI50 [20]?
Answer: 2.38 µM

Question: What about the TGI [20] of the same compound?
Answer: 5.74 µM

Question: And the GI50 [21]?
Answer: 2.99 µM

Question: And the TGI [21]?
Answer: 13.8 µM

Question: And the GI50 [22]?
Answer: 3.75 µM

Question: And the TGI [22]?
Answer: 23.9 µM

Question: And the GI50 [23]?
Answer: 2.24 µM

Question: What about the TGI [23] of the same compound?
Answer: 5.9 µM

Question: What about the GI50 [24] of the same compound?
Answer: 1.64 µM

Question: And the TGI [24]?
Answer: 3.52 µM

Question: What about the GI50 [25] of the same compound?
Answer: 2.65 µM

Question: And the TGI [25]?
Answer: 6.23 µM

Question: And the GI50 [26]?
Answer: 1.75 µM

Question: What about the TGI [26] of the same compound?
Answer: 4.28 µM

Question: And the GI50 [27]?
Answer: 2.26 µM

Question: And the TGI [27]?
Answer: 34.9 µM
